# Data published in patent US20230295162A1 (EÖTVÖS LORÁND TUDOMÁNYEGYETEM, priority 2020, published 2023).
# Assays:
# [1] = tested on: PANC-1 (human pancreatic carcinoma) cells; test: Impedance-based viability assay (xCELLigence SP), long treatment; format: cell-based; conditions: 72 h, read-out: cytotoxicity expressed in IC50, PANC-1
# Excerpt: (Gibco®/Invitrogen Corporation, New York, NY, USA).
# Data obtained from each experiment represent mathematical averages.
# [2] = tested on: MDA-MB-453 breast cancer cell line; test: CellTiter-Glo IC50 (Table 3); format: cell-based; conditions: Homo sapiens
# Experimental: (§1) Some representative imipridones and ONC212 as reference were further tested on the following human malignant cell lines: PC3 and LNCap (prostate carcinoma); BxPC3, MiaPaCa2 and Panc1 (pancreatic cancer); A549, HCC827, H1993 and H520 (lung carcinoma); MDA-MB-453 and MDA-MB-231 (breast cancer) (see Table 2 and FIGS. 1-11).
# (§2) Cell lines were maintained according to the instructions provided by ATCC (https://www.lgcstandards-atcc.org/) in a 5% CO2 humidified incubator maintained at 37° C. temperature. Effects of compounds on cell viability were measured via CellTiter-Glo® luminescent cell viability assay (Promega, Madison, WI, USA) Cells were plated at 1000 cells/well onto a flat-bottomed, white 96 well plate (BRANDplates, cat. no.: 781965). […] After the treatment, medium was removed and CellTiter-Glo® reagent was added. The luminescence signal was recorded using a microplate reader (BioTek Synergy 2 Multi-Mode Reader, BioTek, Winooski, VT, USA).
# (§3) Cell viability data (% of untreated control cells) was evaluated with Microsoft Excel. Dose-response curves (using a non-linear regression model, log (inhibitor) vs response, variable slope) were generated and IC50 values were determined using Graph Pad Prism 5.02 software (GraphPad Software, San Diego, CA, USA).
# [3] = tested on: MDA-MB-231 breast cancer cell line; test: CellTiter-Glo IC50 (Table 3); format: cell-based; conditions: Homo sapiens
# Experimental: as §1, §2, §3
# [4] = tested on: representative cell lines; test: Cytotoxicity on representative cell lines (summary statement); format: cell-based; conditions: Homo sapiens; summary range, ca.
# [5] = tested on: BxPC3 pancreatic cancer cell line; test: CellTiter-Glo IC50 (Example 19); format: cell-based; conditions: Homo sapiens, BXPC-3, 72 h
# Method in brief: (§4)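 Luminescent ATP-based viability readout (CellTiter-Glo) after compound exposure of cells plated at 1000 per well. IC50 values derive from dose-response curves of viability relative to untreated controls, fitted by non-linear regression with variable slope.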
# [6] = tested on: PC3 human prostate cancer cell line; test: CellTiter-Glo IC50 (Example 19); format: cell-based; conditions: 72 h
# Method in brief: as §4
# [7] = tested on: H1993 lung carcinoma cell line; test: CellTiter-Glo IC50 (Example 19); format: cell-based; conditions: Homo sapiens, NCI-H1993, 72 h
# Method in brief: as §4
# [8] = tested on: LNCap human prostate cancer cell line; test: CellTiter-Glo IC50 (Example 19); format: cell-based; conditions: 72 h
# Method in brief: as §4
# [9] = tested on: MiaPaCa2 pancreatic cancer cell line; test: CellTiter-Glo IC50 (Example 19); format: cell-based; conditions: Homo sapiens, MIA PaCa-2, 72 h
# Method in brief: as §4
# [10] = tested on: H520 lung carcinoma cell line; test: CellTiter-Glo IC50 (Example 19); format: cell-based; conditions: Homo sapiens, NCI-H520, 72 h
# Method in brief: as §4
# [11] = tested on: HCC827 lung carcinoma cell line; test: CellTiter-Glo IC50 (Example 19); format: cell-based; conditions: Homo sapiens, 72 h
# Method in brief: as §4
# [12] = tested on: A549 lung carcinoma cell line; test: CellTiter-Glo IC50 (Example 19); format: cell-based; conditions: Homo sapiens, 72 h
# Method in brief: as §4
# [13] = tested on: EBC-1 (lung, squamous cell carcinoma) cells; test: Cell viability assay, CellTiter-Glo (Example 21); format: cell-based, human; conditions: 72 h treatment
# Method in brief: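 The CellTiter-Glo luminescent cell viability assay (Promega) was used to test compound effects on EBC-1 cells. Cells were plated at 1000 cells/well on white flat-bottom 96 well plates, treated, then read for luminescence on a microplate reader. Dose-response curves were fitted by four-parameter variable-slope non-linear regression.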
# [14] = tested on: Detroit 562 (pharynx, carcinoma) cells; test: Cell viability assay, CellTiter-Glo (Example 21); format: cell-based, human; conditions: 72 h treatment
# Method in brief: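 Cells were seeded at optimized densities (Panc-1 750, FaDu 1000, Detroit 562 and MDA-MB-453 1500 cells/well), then treated with compound. Viability was read by CellTiter-Glo luminescence. Dose-response curves were fitted by four-parameter variable-slope non-linear regression.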
# [15] = tested on: LNCaP (prostate, carcinoma) cells; test: Cell viability assay, CellTiter-Glo (Example 21); format: cell-based, human; conditions: 72 h
# Method in brief: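 Flat-bottomed white 96 well plates received 1500 LNCaP cells per well, a density chosen to suit the cells' size and growth rate. Following compound treatment, viability was measured by CellTiter-Glo® luminescence per the manufacturer's protocol, with signal recorded on a BioTek Synergy 2 reader. GraphPad Prism 8.4.2 generated dose-response curves using a four-parameter, variable-slope non-linear regression model.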
# [16] = tested on: PC-3 (prostate, adenocarcinoma) cells; test: Cell viability assay, CellTiter-Glo (Example 21); format: cell-based, human; conditions: 72 h treatment
# Method in brief: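 Cancer cell viability was assessed by luminescence using Promega's CellTiter-Glo® kit. PC-3 cells, plated at a density of 1000 cells/well in white flat-bottom 96 well plates, were exposed to test compounds, after which signals were measured on a microplate reader and dose-response curves fitted by four-parameter variable-slope non-linear regression in GraphPad Prism 8.4.2.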
# [17] = tested on: MIA PaCa-2 (pancreas, carcinoma) cells; test: Cell viability assay, CellTiter-Glo (Example 21); format: cell-based, human; conditions: 72 h treatment
# Method in brief: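 Cell viability of MIA PaCa-2 cells was assessed by CellTiter-Glo® luminescence (Promega, Madison, WI, USA). Cells were plated at 1000 cells/well, a density chosen for their size and growth rate, in white flat-bottomed 96 well plates. After treatment, the signal was recorded on a BioTek microplate reader, and dose-response curves were fitted in GraphPad Prism 8.4.2 with a four-parameter variable-slope non-linear regression.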
Compound,IC50 [1] [nM],IC50 [2] [nM],IC50 [3] [nM],IC50 [5] [nM],IC50 [6] [nM],IC50 [7] [nM],IC50 [8] [nM],IC50 [9] [nM],IC50 [10] [nM],IC50 [11] [nM],IC50 [12] [nM],melting point [°C],"EBC-1 (lung, squamous cell carcinoma) cell viability (% of control) ([13]; 3.7 nM)","EBC-1 (lung, squamous cell carcinoma) cell viability (% of control) ([13]; 11.1 nM)","EBC-1 (lung, squamous cell carcinoma) cell viability (% of control) ([13]; 100 nM)","EBC-1 (lung, squamous cell carcinoma) cell viability (% of control) ([13]; 300 nM)","Detroit 562 (pharynx, carcinoma) cell viability (% of control) ([14]; 3.7 nM)","Detroit 562 (pharynx, carcinoma) cell viability (% of control) ([14]; 11.1 nM)","Detroit 562 (pharynx, carcinoma) cell viability (% of control) ([14]; 100 nM)","Detroit 562 (pharynx, carcinoma) cell viability (% of control) ([14]; 300 nM)",other results
"O=C1C2=C(CCN(Cc3cc(F)cc(F)c3)C2)N2CCN=C2N1Cc1ccc(F)cc1 [I/7, 4-(4-Fluorobenzyl)-7-(3,5-difluorobenzyl)-2,4,6,7,8,9-hexahydroimidazo[1,2-a]pyrido[3,4-e]pyrimidin-5(1H)-one]",8,1,2,12,9,10,5,11,7,13,8,190.5,79.8 ± 4.1 % of control,25.6 ± 0.1 % of control,23.2 ± 0.9 % of control,23.8 ± 0.6 % of control,35.1 ± 5.8 % of control,28.4 ± 4.2 % of control,28.6 ± 13.6 % of control,33.0 ± 4.8 % of control,"IC50 [4]: 3 to 8 nM; LNCaP cell viability ([15]; 3.7 nM): 45.6 ± 7.0 % of control; LNCaP cell viability ([15]; 11.1 nM): 17.2 ± 1.9 % of control; LNCaP cell viability ([15]; 100 nM): 13.1 ± 0.8 % of control; LNCaP cell viability ([15]; 300 nM): 13.9 ± 1.0 % of control; PC-3 (prostate, adenocarcinoma) cell viability (% of control) ([16]; 3.7 nM): 82.1 ± 1.6 % of control; PC-3 (prostate, adenocarcinoma) cell viability (% of control) ([16]; 11.1 nM): 38.9 ± 2.1 % of control; PC-3 (prostate, adenocarcinoma) cell viability (% of control) ([16]; 100 nM): 34.6 ± 3.0 % of control; PC-3 (prostate, adenocarcinoma) cell viability (% of control) ([16]; 300 nM): 34.3 ± 3.4 % of control; MIA PaCa-2 (pancreas, carcinoma) cell viability (% of control) ([17]; 3.7 nM): 87.4 ± 12.0 % of control; MIA PaCa-2 (pancreas, carcinoma) cell viability (% of control) ([17]; 11.1 nM): 23.1 ± 6.3 % of control; MIA PaCa-2 (pancreas, carcinoma) cell viability (% of control) ([17]; 100 nM): 18.5 ± 6.8 % of control; MIA PaCa-2 (pancreas, carcinoma) cell viability (% of control) ([17]; 300 nM): 19.8 ± 8.6 % of control"
"[N-]=[N+]=Nc1ccc(CN2C(=O)C3=C(CCN(Cc4cc(F)cc(F)c4)C3)N3CCN=C23)cc1 [I/107, 4-(4-Azidobenzyl)-7-(3,5-difluorobenzyl)-2,4,6,7,8,9-hexahydroimidazo[1,2-a]pyrido[3,4-e]pyrimidin-5(1H)-one]",11,2,3,14,11,12,5,16,8,15,16,155.5,99.9 ± 2.5 % of control,70.3 ± 0.9 % of control,23.5 ± 1.0 % of control,23.5 ± 2.5 % of control,86.6 ± 5.7 % of control,36.8 ± 5.1 % of control,31.4 ± 2.9 % of control,34.1 ± 6.5 % of control,"LNCaP cell viability ([15]; 3.7 nM): 95.3 ± 2.3 % of control; LNCaP cell viability ([15]; 11.1 nM): 37.9 ± 3.3 % of control; LNCaP cell viability ([15]; 100 nM): 13.5 ± 0.7 % of control; LNCaP cell viability ([15]; 300 nM): 13.6 ± 0.6 % of control; PC-3 (prostate, adenocarcinoma) cell viability (% of control) ([16]; 3.7 nM): 107.1 ± 5.9 % of control; PC-3 (prostate, adenocarcinoma) cell viability (% of control) ([16]; 11.1 nM): 82.3 ± 7.0 % of control; PC-3 (prostate, adenocarcinoma) cell viability (% of control) ([16]; 100 nM): 32.7 ± 2.6 % of control; PC-3 (prostate, adenocarcinoma) cell viability (% of control) ([16]; 300 nM): 32.8 ± 4.1 % of control; MIA PaCa-2 (pancreas, carcinoma) cell viability (% of control) ([17]; 3.7 nM): 102.5 ± 5.4 % of control; MIA PaCa-2 (pancreas, carcinoma) cell viability (% of control) ([17]; 11.1 nM): 91.5 ± 6.6 % of control; MIA PaCa-2 (pancreas, carcinoma) cell viability (% of control) ([17]; 100 nM): 18.8 ± 6.2 % of control; MIA PaCa-2 (pancreas, carcinoma) cell viability (% of control) ([17]; 300 nM): 17.4 ± 7.1 % of control"
"[N-]=[N+]=Nc1cccc(CN2CCC3=C(C2)C(=O)N(Cc2ccc(C(F)(F)F)cc2)C2=NCCN23)c1 [I/111, 7-(3-Azidobenzyl)-4-(4-(trifluoromethyl)benzyl)-2,4,6,7,8,9-hexahydroimidazo[1,2-a]pyrido[3,4-e]pyrimidin-5(1H)-one]",10,< 1,1,13,7,6,5,10,6,12,8,128.8,94.1 ± 3.0 % of control,54.0 ± 6.5 % of control,20.6 ± 0.6 % of control,20.0 ± 0.0 % of control,48.0 ± 21.7 % of control,32.8 ± 3.7 % of control,26.8 ± 2.8 % of control,28.8 ± 3.8 % of control,"LNCaP cell viability ([15]; 3.7 nM): 97.1 ± 2.6 % of control; LNCaP cell viability ([15]; 11.1 nM): 32.4 ± 2.3 % of control; LNCaP cell viability ([15]; 100 nM): 11.8 ± 0.7 % of control; LNCaP cell viability ([15]; 300 nM): 11.7 ± 0.7 % of control; PC-3 (prostate, adenocarcinoma) cell viability (% of control) ([16]; 3.7 nM): 106.8 ± 2.4 % of control; PC-3 (prostate, adenocarcinoma) cell viability (% of control) ([16]; 11.1 nM): 75.5 ± 5.9 % of control; PC-3 (prostate, adenocarcinoma) cell viability (% of control) ([16]; 100 nM): 32.0 ± 3.2 % of control; PC-3 (prostate, adenocarcinoma) cell viability (% of control) ([16]; 300 nM): 31.3 ± 3.0 % of control; MIA PaCa-2 (pancreas, carcinoma) cell viability (% of control) ([17]; 3.7 nM): 100.2 ± 8.8 % of control; MIA PaCa-2 (pancreas, carcinoma) cell viability (% of control) ([17]; 11.1 nM): 90.6 ± 19.3 % of control; MIA PaCa-2 (pancreas, carcinoma) cell viability (% of control) ([17]; 100 nM): 16.5 ± 6.7 % of control; MIA PaCa-2 (pancreas, carcinoma) cell viability (% of control) ([17]; 300 nM): 16.2 ± 6.9 % of control"
